Reference: patent US20140356854A1, “METHODS AND COMPOSITIONS RELATING TO MEVALONATE PHOSPHATE DECARBOXYLASE” (Salk Institute for Biological Studies, priority 2013, published 2014)
Values joined by “and” are separate entries in the source; they are usually repeats but may differ in a detail not shown here. Equal values may be shown once. Read-outs that look alike come from different tables or passages of the source.

Assays:
IPK from M. maripaludis = IPK from M. maripaludis (Methanococcus maripaludis, UniProt Q6LWR2); experiment: Steady-state kinetics, coupled pyruvate kinase-lactate dehydrogenase assay, IPK
IPK from A. thaliana = IPK from A. thaliana (Arabidopsis thaliana, UniProt Q8H1F7); experiment: Kinetics, coupled assay, IPK
IPK from B. floridae = IPK from B. floridae (Branchiostoma floridae, UniProt A0A9J7KY69); experiment: Steady-state kinetics, coupled assay, IPK
[1] = tested on: MDD homolog from R. castenholzii; experiment: Steady-state kinetics, MDD homolog tested as MDD; assay type: biochemical
Protocol: (§1) Instead, it behaves as an MPD and catalyzes the decarboxylation of MVAP (3) to IP (4) with a kcat of 0.94 s^−1 and an apparent KM for MVAP of 1.150 mM (Table 2). This enzyme, by sequence homologous to MDD, has acquired an unexpected new function as a bona fide MPD playing the role of the long sought MPD of the alternative MVA pathway.
(§2) Steady-state kinetic analyses.

MDD from B. floridae = MDD from B. floridae (Branchiostoma floridae, UniProt C3ZGP5); experiment: Steady-state kinetics, coupled assay, MDD; assay type: biochemical; settings: substrate MVAPP
MDD from S. solfataricus = MDD from S. solfataricus (Saccharolobus solfataricus, UniProt Q97UL5); experiment: Steady-state kinetics, MDD; assay type: biochemical; settings: steady state conditions, kinetic parameters could not be assigned
PMK from B. floridae = PMK from B. floridae (Branchiostoma floridae, UniProt C3Y1G0); experiment: Steady-state kinetics, coupled assay, PMK; assay type: biochemical; settings: substrate MVAP
[2] = tested on: PMK and MDD from A. thaliana; experiment: GC-MS in vitro classical MVA pathway reaction; assay type: biochemical; settings: A. thaliana enzymes, 500 μM (RS)-MVAP, relative to FPP control
Protocol: (§3) GC-MS quantification of fully functional alternative and classical MVA pathways. To confirm that the functional R. castenholzii MPD (MDD-like protein sequence) catalyzes the transformation of MVAP (3) to IP (4) in a reconstituted in vitro pathway, a five-enzyme in vitro reaction mixture was assembled. Briefly, MVAP (3) and ATP were incubated for 30 min with MPD and IPK from R. castenholzii. The reaction mixture was then diluted into a mixture containing all necessary downstream enzymes to biosynthesize the GC-detectable sesquiterpene 5-epi-aristolochene (5-EA, 6). Similar reactions were performed for the in vitro reconstitution of the classical MVA pathway using PMK and MDD from each respective organism.
(§4) All GC-MS assays were carried out in two steps. First, 1 μM of each of two enzymes (PMK and MDD for the classical MVA pathway, MDD and IPK for the alternative MVA pathway) was incubated for 30 min with 500 μM (RS)-MVAP, 4 mM ATP, and 10 mM MgCl2 buffered with 50 mM Tris-HCl, pH 8.0. Second, 40 μl of this reaction was transferred to a glass vial containing 10 mM MgCl2 buffered with 50 mM Tris-HCl, pH 8.0, containing at least a 150-fold excess of each of the following enzymes: E. coli isopentenyl diphosphate isomerase (IPPI), E. coli farnesyl diphosphate synthase (FPPS), and tobacco 5-epi-aristolochene synthase (TEAS). This reaction mixture was overlaid with ethyl acetate, incubated overnight, and vortexed to extract hydrocarbons from the aqueous layer. GC-MS assays were performed as previously described (18). All values were compared to a control reaction, where FPP was added in place of MVA pathway enzymes at an appropriate concentration to simulate complete turnover of MVAP.

[3] = tested on: PMK and MDD from S. solfataricus; experiment: GC-MS in vitro classical MVA pathway reaction; assay type: biochemical; settings: S. solfataricus enzymes, 500 μM (RS)-MVAP, relative to FPP control
Protocol: as §3, §4

[4] = tested on: PMK and MDD from B. floridae; experiment: GC-MS in vitro classical MVA pathway reaction; assay type: biochemical; settings: B. floridae enzymes, 500 μM (RS)-MVAP, relative to FPP control
Protocol: as §3, §4

[5] = tested on: MPD from R. castenholzii (SEQ ID NO: 1); experiment: Steady-state kinetics, coupled assay, MPD; assay type: biochemical
Protocol: as §1, §2

[6] = tested on: IPK and MDD from S. solfataricus; experiment: GC-MS in vitro alternative MVA pathway reaction; assay type: biochemical
Description: (§5) The in vitro classical MVA pathway reactions for S. solfataricus, A. thaliana, and B. floridae yield 39.2%, 48.7%, and 52.1% conversion of MVAP (3) to 5-EA (6), respectively (FIG. 3). The in vitro classical MVA pathway reaction from R. castenholzii (using B. floridae PMK to complete the missing step) yields less then 0.2% conversion to 5-EA (FIG. 3). In contrast, the in vitro alternative MVA pathway from R. castenholzii enzymes yields a 2.0% conversion of MVAP (3) to 5-EA (6). B. floridae, A. thaliana, and S. solfataricus were tested for a possible alternative MVA pathway components using their IPKs and MDDs.
as §4

[7] = tested on: IPK and MDD from A. thaliana; experiment: GC-MS in vitro alternative MVA pathway reaction; assay type: biochemical
Description: as §5, §4

[8] = tested on: IPK and MDD from B. floridae; experiment: GC-MS in vitro alternative MVA pathway reaction; assay type: biochemical
Description: as §5, §4

MJ0403 = MJ0403 (Methanocaldococcus jannaschii, UniProt Q57846); experiment: In vitro decarboxylase activity of MJ0403; assay type: biochemical, M. jannaschii
Description: MJ0403 encodes a protein that is similar in sequence to subunit B of class III extradiol ring-cleavage dioxygenases and is also homologous to the human protein MEMO (mediator of erbB2-driven cell motility).

PMK from S. solfataricus = PMK from S. solfataricus (Saccharolobus solfataricus, UniProt Q97UL6); experiment: Steady-state kinetics, coupled assay, PMK; assay type: biochemical
[9] = tested on: MPD and IPK from R. castenholzii; experiment: GC-MS in vitro alternative MVA pathway reaction; assay type: biochemical
Protocol: as §3
All GC-MS assays were carried out in two steps. First, 1 μM of each of two enzymes (PMK and MDD for the classical MVA pathway, MDD and IPK for the alternative MVA pathway) was incubated for 30 min with 500 μM (RS)-MVAP, 4 mM ATP, and 10 mM MgCl2 buffered with 50 mM Tris-HCl, pH 8.0. Second, 40 μl of this reaction was transferred to a glass vial containing 10 mM MgCl2 buffered with 50 mM Tris-HCl, pH 8.0, containing at least a 150-fold excess of each of the following enzymes: E. coli isopentenyl diphosphate isomerase (IPPI), E. coli farnesyl diphosphate synthase (FPPS), and tobacco 5-epi-aristolochene synthase (TEAS). […]

[10] = tested on: R. castenholzii MDD homolog with B. floridae PMK; assay type: biochemical
[11] = substrate: CC(O)(CCOP(=O)(O)OP(=O)(O)O)CC(=O)O; experiment: purified protein, by the assay type; settings: other: substrate MVAPP; A. thaliana MDD
[12] = substrate: CC(O)(CCOP(=O)(O)O)CC(=O)O; experiment: purified protein, by the assay type; settings: other: substrate MVAP; A. thaliana PMK
[13] = substrate: C=C(C)CCOP(=O)(O)O; experiment: purified protein, by the assay type; settings: other: substrate IP

Sequence of PMK from S. solfataricus (Q97UL6 whole entry): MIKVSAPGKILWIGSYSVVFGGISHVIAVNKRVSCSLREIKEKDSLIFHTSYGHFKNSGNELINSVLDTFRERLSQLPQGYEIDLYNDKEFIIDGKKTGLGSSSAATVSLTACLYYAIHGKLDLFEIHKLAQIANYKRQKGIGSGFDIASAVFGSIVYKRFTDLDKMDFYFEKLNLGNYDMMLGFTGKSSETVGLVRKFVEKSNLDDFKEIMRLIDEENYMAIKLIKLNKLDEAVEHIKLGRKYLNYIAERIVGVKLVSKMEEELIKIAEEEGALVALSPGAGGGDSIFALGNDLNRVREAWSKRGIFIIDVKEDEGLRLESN
Sequence of MDD from B. floridae (C3ZGP5 1-409): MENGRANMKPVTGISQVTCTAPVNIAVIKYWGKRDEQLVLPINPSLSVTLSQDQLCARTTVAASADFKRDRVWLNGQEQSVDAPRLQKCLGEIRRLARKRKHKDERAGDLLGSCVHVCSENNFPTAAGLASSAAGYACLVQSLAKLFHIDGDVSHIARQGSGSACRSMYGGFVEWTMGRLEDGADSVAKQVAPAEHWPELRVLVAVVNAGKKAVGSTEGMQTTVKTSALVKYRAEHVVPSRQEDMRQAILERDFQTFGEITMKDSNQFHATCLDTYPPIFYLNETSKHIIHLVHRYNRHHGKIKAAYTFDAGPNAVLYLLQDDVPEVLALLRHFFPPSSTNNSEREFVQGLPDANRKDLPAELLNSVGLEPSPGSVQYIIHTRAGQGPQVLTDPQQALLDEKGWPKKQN
Sequence of PMK from B. floridae (C3Y1G0 1-201): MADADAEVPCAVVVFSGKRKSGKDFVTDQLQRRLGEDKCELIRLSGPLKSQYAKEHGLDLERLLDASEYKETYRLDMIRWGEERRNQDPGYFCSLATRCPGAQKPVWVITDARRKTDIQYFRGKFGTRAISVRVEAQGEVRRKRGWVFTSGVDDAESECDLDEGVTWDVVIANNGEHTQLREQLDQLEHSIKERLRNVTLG
Sequence of MJ0403 (Q57846 whole entry): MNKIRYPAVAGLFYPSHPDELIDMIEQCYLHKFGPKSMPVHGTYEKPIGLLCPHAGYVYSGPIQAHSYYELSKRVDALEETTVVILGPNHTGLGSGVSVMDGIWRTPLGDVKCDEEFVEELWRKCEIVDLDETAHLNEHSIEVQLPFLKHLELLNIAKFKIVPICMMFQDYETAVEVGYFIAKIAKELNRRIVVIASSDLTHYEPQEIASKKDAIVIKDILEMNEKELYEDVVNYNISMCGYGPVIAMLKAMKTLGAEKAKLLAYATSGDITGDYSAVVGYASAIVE
Sequence of MDD from S. solfataricus (Q97UL5 whole entry): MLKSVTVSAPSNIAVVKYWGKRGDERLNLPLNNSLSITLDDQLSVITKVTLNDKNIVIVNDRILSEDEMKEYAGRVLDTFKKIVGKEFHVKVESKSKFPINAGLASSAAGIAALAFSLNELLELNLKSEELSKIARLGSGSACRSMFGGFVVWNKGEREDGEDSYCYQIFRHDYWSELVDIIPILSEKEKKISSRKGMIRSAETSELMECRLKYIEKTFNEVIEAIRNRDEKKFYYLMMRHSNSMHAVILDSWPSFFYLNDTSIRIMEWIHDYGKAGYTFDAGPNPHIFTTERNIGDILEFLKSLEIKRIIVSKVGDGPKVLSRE

## C=C(C)CCOP(=O)(O)O [IP, isopentenyl phosphate]
IPK from M. maripaludis
  Ki: 877 µM
IPK from A. thaliana
  Ki: 522 µM
IPK from B. floridae
  Ki: 2820 µM

## CC(O)(CCOP(=O)(O)OP(=O)(O)O)CC(=O)O (racemic) [MVAPP, diphosphomevalonate]
[1]
  decarboxylation of MVAPP to IPP at a measurable rate: does not catalyze
MDD from B. floridae
  Km: 15.1 µM
  kcat: 1.36 (±0.09) s^−1
MDD from S. solfataricus
  rate of decarboxylation of MVAPP: very slow rate

## CC(O)(CCOP(=O)(O)O)CC(=O)O (stereo not shown) [MVAP, phosphomevalonate]
PMK from B. floridae
  kcat: 12.6 (±0.4) s^−1
[2]
  conversion of MVAP to 5-EA: 48.7%
[3]
  conversion of MVAP to 5-EA: 39.2%
[4]
  conversion of MVAP to 5-EA: 52.1%
[5]; decarboxylation of MVAP to IP, read-out: apparent KM for MVAP
  Km: 1150 µM
[5]; substrate MVAP
  kcat: 0.94 s^−1 and 0.94 (±0.08) s^−1
[5]; substrate MVAP, read-out: KM
  Km: 1150 µM
[6]
  5-EA formation: do not yield any detectable 5-EA
[7]
  5-EA formation: do not yield any detectable 5-EA
[8]
  5-EA formation: do not yield any detectable 5-EA
MJ0403
  turnover of MVAP (decarboxylase activity): failed to show any turnover
PMK from S. solfataricus
  Ki: 5500 µM
PMK from S. solfataricus; substrate MVAP, S. solfataricus PMK
  kcat: 1.98 (±0.10) s^−1
[9]
  conversion of MVAP to 5-EA: 2.0%
[10]
  conversion to 5-EA: < 0.2%

B1: MDD from A. thaliana (Arabidopsis thaliana) (protein)
chain: MAEEKWVVMVTAQTPTNIAVIKYWGKRDEVRILPINDSISVTLDPDHLCTLTTVAVSPSFDRDRMWLNGKEISLSGSRYQNCLREIRSRADDVEDKEKGIKIAKKDWEKLHLHIASHNNFPTAAGLASSAAGFACLVFALAKLMNVNEDPSQLSAIARQGSGSACRSLFGGFVKWNMGNKEDGSDSVAVQLVDDKHWDDLVIIIAVVSSRQKETSSTSGMRESVETSLLLQHRAKEVVPVRILQMEEAIKNRDFTSFTKLTCSDSNQFHAVCMDTSPPIFYMNDTSHRIISLVEKWNRSAGTPEIAYTFDAGPNAVMIARNRKVAVELLQGLLYCFPPKPDTDMKSYVLGDTSIVKEAGLEGELPQGIKDKIGSQDQKGEVSYFICSRPGRGPVVLQDQTQALLHPQTGLPK
[11]
  Km: 15.7 (±5.0) μM
  kcat: 2.02 ± 0.13 s⁻¹
  kcat/Km: 130000 ± 40000 M⁻¹ s⁻¹

B2: PMK from A. thaliana (Arabidopsis thaliana) (protein)
chain: MAVVASAPGKVLMTGGYLVLEKPNAGLVLSTNARFYAIVKPINEEVKPESWAWKWTDVKLTSPQLSRESMYKLSLNHLTLQSVSASDSRNPFVEHAIQYAIAAAHLATEKDKESLHKLLLQGLDITILGSNDFYSYRNQIESAGLPLTPESLGTLAPFASITFNAAESNGANSKPEVAKTGLGSSAAMTTAVVAALLHYLGVVDLSDPCKEGKFGCSDLDVIHMIAQTSHCLAQGKVGSGFDVSCAVYGSQRYVRFSPEVLSFAQVAVTGLPLNEVIGTILKGKWDNKRTEFSLPPLMNLFLGEPGSGGSSTPSMVGAVKKWQMSDPEKARENWQNLSDANLELETKLNDLSKLAKDHWDVYLRVIKSCSVLTSEKWVLHATEPINEAIIKELLEAREAMLRIRILMRQMGEAASVPIEPESQTQLLDSTMSAEGVLLAGVPGAGGFDAIFAITLGDSGTKLTQAWSSHNVLALLVREDPHGVCLESGDPRTTCITSGVSSIHLE
[12]
  Km: 11.8 (±2.0) μM
  kcat: 20.9 ± 0.7 s⁻¹
  kcat/Km: 1.77e+06 ± 310000 M⁻¹ s⁻¹

B3: IPK from T. adhaerens (Trichoplax adhaerens) (protein)
chain: MALENRHVDCIIKLGGSAITSKQHLEKANTQAINIAASHVHEMTRKCVIVHGAGSFGHFHAKKYNIATGFNDTDFEQQRIGFSQTRLSVTKLNHIIVQALIEKDVPAVSISPCGLWKTTDRSVTSTFLQPINDLLRAGFVPVVHGDAVIDTSLGCTILSGDTIIQILAENLCPKRIIFITDTNGIYDRPPHNDDAKLLRYISVTKDGKVTNEIETSQLEHDVTGGVQTKIASAAHIVSKCNIPVHVVKLGSAAAWKLLDKGELEESDIATTITLQESEYPK
[13]; T. adhaerens IPK
  Km: 3.1 (±1.6) μM
  kcat: 2.4 s⁻¹
  kcat/Km: 770000 M⁻¹ s⁻¹

B4: IPK from M. maripaludis (Methanococcus maripaludis S2) (protein)
chain: MFAILKLGGSILCDKNIPYSINWENLENIAIEIKEAIEYYKSKNEEFKLIIVHGGGSFGHPVAKKYLKDGKFVDMGKGYWEIQKAMRKFNNIVIEELQNFEIPAVSIQASSFITFDNESNLHFDTNAVEKMLDKGLIPVIHGDIVIDEKTDNFKIFSGDHALPFLSKKLNPDLSLHASDVDGVWDLNFKIIENINSKNIEDVLKSLKPSNKEDVTGGMHLKVMECYNLGIKTIIFNGNKKRNIYNALLKNVKGTLIN
[13]; M. maripaludis IPK
  Km: 21.4 (±4.3) μM
  kcat: 15.2 s⁻¹
  kcat/Km: 710000 M⁻¹ s⁻¹

B5: IPK from A. thaliana (Arabidopsis thaliana) (protein)
chain: MELNISESRSRSIRCIVKLGGAAITCKNELEKIHDENLEVVACQLRQAMLEGSAPSKVIGMDWSKRPGSSEISCDVDDIGDQKSSEFSKFVVVHGAGSFGHFQASRSGVHKGGLEKPIVKAGFVATRISVTNLNLEIVRALAREGIPTIGMSPFSCGWSTSKRDVASADLATVAKTIDSGFVPVLHGDAVLDNILGCTILSGDVIIRHLADHLKPEYVVFLTDVLGVYDRPPSPSEPDAVLLKEIAVGEDGSWKVVNPLLEHTDKKVDYSVAAHDTTGGMETKISEAAMIAKLGVDVYIVKAATTHSQRALNGDLRDSVPEDWLGTIIRFSK
[13]; A. thaliana IPK
  Km: 0.79 (±0.35) μM
  kcat: 1.9 s⁻¹
  kcat/Km: 2.4e+06 M⁻¹ s⁻¹

B6: IPK from B. floridae (Branchiostoma floridae) (protein)
chain: MVSSSRSKVMAEADASLECIVKLGGSAVTDKSTLETPRLDAIRAAADIISQVRGRCIVVHGAGSFGHFQAREHGVVWGYRDKETDTEVQTVKLGFCRTRQSVTKLLHIITEEFVRLGIPAVGVSPLSSWVTDDASVVKADTDNIRDMLLEGFLPVMHGDAVLDRKRGCTILSGDTIIKHLCSVFRPPRVVFLTDVPGIYDRPPEQPGAQLIPEIQVDRDRKLHVSIATSSQAHDVTGGIALKLKSAIDIVTESNGHTCVMVCGIQSQAAVRACVEGQLPQGTGTIVQLNISKHPDEVT
[13]; B. floridae IPK
  Km: 13.3 (±2.0) μM
  kcat: 27.2 s⁻¹
  kcat/Km: 2.05e+06 M⁻¹ s⁻¹
